Measured values reported in patent US20070288088A1, “Drug eluting stent with a biodegradable release layer attached with an electro-grafted primer coating” (priority 2006, published 2007).

Columns and labels:
[1] = tested on: EC's as compared to SMC's; settings: EC's versus SMC's; cited from earlier work
[2] = tested on: cells seeded in 96-well microplate; settings: control samples
Method: A potential cytotoxicity study of the electro-grafted coatings is conducted in accordance with the standard ISO 10993-5.
The extraction was performed in triplicate with the culture medium (DMEM) containing fetal calf serum, in sterile, closed, chemically inert containers during 96 h at 37° C.
The extract and its dilutions (50% and 10%) were placed on the cells and left in contact for 24 hours, at least. The cytotoxicity was determined by a vital dye, the neutral red.
The means of determination retained were the general morphology of the cell (qualitative evaluation) and the percentage of cell viability (quantitative evaluation) based on that the absorbance obtain by reading at 540 nm, is proportional to the number of living cells (quantitative analysis).
Positive control: the control was performed for each test with a product which provided a reproducible cytotoxic effect under the conditions of the test: a solution of phenol at 3.2 g/l in culture medium (DMEM). The test complied if the percentage of mortality was about 100%.
The test complied if the percentage of cell viability is 100%.

Structure (SMILES): CC(=O)O[C@H]1C(=O)[C@@]2(C)[C@H]([C@H](OC(=O)c3ccccc3)[C@]3(O)C[C@H](OC(=O)[C@H](O)[C@@H](NC(=O)c4ccccc4)c4ccccc4)C(C)=C1C3(C)C)[C@]1(OC(C)=O)CO[C@@H]1C[C@@H]2O [Paclitaxel]
- Threshold toxic concentration [1]: comparable or even lower against EC's as compared to SMC's

Structure (SMILES): Oc1ccccc1 [Positive control, phenol]
- Death % [2]: 99%
- Qualitative evaluation (neutral red) [2]: Cells don't
- Viability % [2]: 1%

Structure (SMILES): CO[C@H]1C[C@@H]2CC[C@@H](C)[C@@](O)(O2)C(=O)C(=O)N2CCCC[C@H]2C(=O)O[C@H]([C@H](C)C[C@@H]2CC[C@@H](O)[C@H](OC)C2)CC(=O)[C@H](C)/C=C(\C)[C@@H](O)[C@@H](OC)C(=O)[C@H](C)C[C@H](C)/C=C/C=C/C=C/1C [Sirolimus]
- Threshold toxic concentration [1]: comparable or even lower against EC's as compared to SMC's
